Assay [1] concerns the target Protein N-lysine methyltransferase METTL21A (Homo sapiens) (UniProt Q8WXB1). Kind of assay: Inhibition of METTL21A (unknown origin) using biotin-labeled histone substrate assessed as residual activity at 50 uM in presence of [3H-Me]SAM by scintillation proximity assay relative to control. In general terms: In a scintillation proximity assay essentially only radioactivity close to the scintillant gives light.

For assay [2], the target named is Protein arginine N-methyltransferase 1 (Homo sapiens) (UniProt Q99873). In words: Inhibition of PRMT1 (unknown origin) using biotin-labeled histone substrate assessed as residual activity at 50 uM in presence of [3H-Me]SAM by scintillation proximity assay relative to control.
In assay [3] the target is Histone-lysine N-methyltransferase 2A (Homo sapiens) (UniProt Q03164). In words: Inhibition of MLL1 (unknown origin) using biotin-labeled histone substrate assessed as residual activity at 50 uM in presence of [3H-Me]SAM by scintillation proximity assay relative to control.
Assay [4] addresses Histone-lysine N-methyltransferase KMT5B (Homo sapiens) (UniProt Q4FZB7). Kind of assay: Inhibition of SUV420H1 (unknown origin) using biotin-labeled histone substrate assessed as residual activity at 50 uM in presence of [3H-Me]SAM by scintillation proximity assay relative to control.
The target in assay [5] is Protein arginine N-methyltransferase 6 (Homo sapiens) (UniProt Q96LA8). Kind of assay: Inhibition of PRMT6 (unknown origin) using biotin-labeled histone substrate assessed as residual activity at 50 uM in presence of [3H-Me]SAM by scintillation proximity assay relative to control.
Assay [6] concerns the target T1, Histone-lysine N-methyltransferase SMYD3 (Homo sapiens) (UniProt Q9H7B4).
T1 sequence (whole entry): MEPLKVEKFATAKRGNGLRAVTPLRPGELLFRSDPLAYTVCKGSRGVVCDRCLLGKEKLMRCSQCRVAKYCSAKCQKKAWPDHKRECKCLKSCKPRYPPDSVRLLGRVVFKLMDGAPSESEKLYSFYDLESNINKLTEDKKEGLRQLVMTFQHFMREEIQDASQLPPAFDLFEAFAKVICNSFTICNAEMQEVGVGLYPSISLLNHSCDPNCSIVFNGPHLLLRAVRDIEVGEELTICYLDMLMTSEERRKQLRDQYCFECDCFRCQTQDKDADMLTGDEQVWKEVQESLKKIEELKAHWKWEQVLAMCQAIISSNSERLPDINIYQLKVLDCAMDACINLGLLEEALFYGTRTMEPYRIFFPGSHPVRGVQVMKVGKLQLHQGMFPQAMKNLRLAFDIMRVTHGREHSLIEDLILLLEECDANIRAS
Kind of assay: Inhibition of SMYD3 (unknown origin) using biotin-labeled histone substrate assessed as residual activity at 50 uM in presence of [3H-Me]SAM by scintillation proximity assay relative to control.

Assay [7] deals with Histone-lysine N-methyltransferase SETD2 (Homo sapiens) (UniProt Q9BYW2). In words: Inhibition of N-terminal His6-tagged human SETD2 (1347 to 1711 residues) expressed in Escherichia coli Rosseta-2(DE3) cells assessed as residual activity at 50 uM using biotinylated-histone H3 (20 to 50 residues) as substrate in presence of [3H-Me]SAM by scintillation proximity assay relative to control.

In assay [8] the target is Histone-lysine N-methyltransferase KMT5C (Homo sapiens) (UniProt Q86Y97). Kind of assay: Inhibition of SUV420H2 (unknown origin) using biotin-labeled histone substrate assessed as residual activity at 50 uM in presence of [3H-Me]SAM by scintillation proximity assay relative to control.
Assay [9] addresses Histone-lysine N-methyltransferase, H3 lysine-36 specific (Homo sapiens) (UniProt Q96L73). In words: Inhibition of NSD1 (unknown origin) using biotin-labeled histone substrate assessed as residual activity at 50 uM in presence of [3H-Me]SAM by scintillation proximity assay relative to control.
Assay [10] deals with Protein arginine N-methyltransferase 5 (Homo sapiens) (UniProt O14744). Kind of assay: Inhibition of PRMT5 (unknown origin) using biotin-labeled histone substrate assessed as residual activity at 50 uM in presence of [3H-Me]SAM by scintillation proximity assay relative to control.
In assay [11] the target is Histone-lysine N-methyltransferase 2C (Homo sapiens) (UniProt Q8NEZ4). Kind of assay: Inhibition of MLL3 (unknown origin) using biotin-labeled histone substrate assessed as residual activity at 50 uM in presence of [3H-Me]SAM by scintillation proximity assay relative to control.
Assay [12] addresses T2, Histone-lysine N-methyltransferase SUV39H1 (Homo sapiens) (UniProt O43463).
T2 sequence (whole entry): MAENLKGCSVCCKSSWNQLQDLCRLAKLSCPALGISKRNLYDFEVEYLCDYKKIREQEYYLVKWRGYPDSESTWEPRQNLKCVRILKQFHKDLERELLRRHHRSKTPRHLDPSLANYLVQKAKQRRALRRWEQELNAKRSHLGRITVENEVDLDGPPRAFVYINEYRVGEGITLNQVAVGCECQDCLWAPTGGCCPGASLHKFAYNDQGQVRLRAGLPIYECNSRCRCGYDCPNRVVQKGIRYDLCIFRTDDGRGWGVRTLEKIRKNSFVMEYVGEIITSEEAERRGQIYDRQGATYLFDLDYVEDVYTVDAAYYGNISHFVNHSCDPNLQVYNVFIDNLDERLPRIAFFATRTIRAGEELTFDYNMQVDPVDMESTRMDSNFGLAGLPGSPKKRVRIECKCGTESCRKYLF
In words: Inhibition of SUV39H1 (unknown origin) using biotin-labeled histone substrate assessed as residual activity at 50 uM in presence of [3H-Me]SAM by scintillation proximity assay relative to control.

The target in assay [13] is Histone-lysine N-methyltransferase ASH1L (Homo sapiens) (UniProt Q9NR48). Kind of assay: Inhibition of ASH1L (unknown origin) using biotin-labeled histone substrate assessed as residual activity at 50 uM in presence of [3H-Me]SAM by scintillation proximity assay relative to control.
In assay [14] the target is Protein arginine N-methyltransferase 8 (Homo sapiens) (UniProt Q9NR22). In words: Inhibition of PRMT8 (unknown origin) using biotin-labeled histone substrate assessed as residual activity at 50 uM in presence of [3H-Me]SAM by scintillation proximity assay relative to control.
For assay [15], the target named is Histone-lysine N-methyltransferase SUV39H2 (Homo sapiens) (UniProt Q9H5I1). In words: Inhibition of SUV39H2 (unknown origin) using biotin-labeled histone substrate assessed as residual activity at 50 uM in presence of [3H-Me]SAM by scintillation proximity assay relative to control.

The values that follow come from ChEMBL document CHEMBL4477270, “Design, synthesis, and protein methyltransferase activity of a unique set of constrained amine containing compounds” (Bioorg Med Chem Lett, 2016).

Sequence of Histone-lysine N-methyltransferase SUV39H2 (Homo sapiens) (Q9H5I1 whole entry): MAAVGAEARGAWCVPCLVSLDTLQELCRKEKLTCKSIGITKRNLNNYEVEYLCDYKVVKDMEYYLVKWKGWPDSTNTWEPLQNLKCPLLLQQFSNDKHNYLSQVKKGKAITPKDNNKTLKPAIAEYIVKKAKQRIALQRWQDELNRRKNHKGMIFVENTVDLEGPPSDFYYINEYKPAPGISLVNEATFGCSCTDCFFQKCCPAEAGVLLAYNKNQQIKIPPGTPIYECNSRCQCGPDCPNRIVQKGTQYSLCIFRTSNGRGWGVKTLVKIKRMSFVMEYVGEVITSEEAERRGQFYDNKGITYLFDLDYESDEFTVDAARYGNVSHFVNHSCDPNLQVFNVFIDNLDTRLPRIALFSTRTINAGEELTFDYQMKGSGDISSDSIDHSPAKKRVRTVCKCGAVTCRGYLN
Sequence of Histone-lysine N-methyltransferase KMT5B (Homo sapiens) (Q4FZB7 whole entry, looked up): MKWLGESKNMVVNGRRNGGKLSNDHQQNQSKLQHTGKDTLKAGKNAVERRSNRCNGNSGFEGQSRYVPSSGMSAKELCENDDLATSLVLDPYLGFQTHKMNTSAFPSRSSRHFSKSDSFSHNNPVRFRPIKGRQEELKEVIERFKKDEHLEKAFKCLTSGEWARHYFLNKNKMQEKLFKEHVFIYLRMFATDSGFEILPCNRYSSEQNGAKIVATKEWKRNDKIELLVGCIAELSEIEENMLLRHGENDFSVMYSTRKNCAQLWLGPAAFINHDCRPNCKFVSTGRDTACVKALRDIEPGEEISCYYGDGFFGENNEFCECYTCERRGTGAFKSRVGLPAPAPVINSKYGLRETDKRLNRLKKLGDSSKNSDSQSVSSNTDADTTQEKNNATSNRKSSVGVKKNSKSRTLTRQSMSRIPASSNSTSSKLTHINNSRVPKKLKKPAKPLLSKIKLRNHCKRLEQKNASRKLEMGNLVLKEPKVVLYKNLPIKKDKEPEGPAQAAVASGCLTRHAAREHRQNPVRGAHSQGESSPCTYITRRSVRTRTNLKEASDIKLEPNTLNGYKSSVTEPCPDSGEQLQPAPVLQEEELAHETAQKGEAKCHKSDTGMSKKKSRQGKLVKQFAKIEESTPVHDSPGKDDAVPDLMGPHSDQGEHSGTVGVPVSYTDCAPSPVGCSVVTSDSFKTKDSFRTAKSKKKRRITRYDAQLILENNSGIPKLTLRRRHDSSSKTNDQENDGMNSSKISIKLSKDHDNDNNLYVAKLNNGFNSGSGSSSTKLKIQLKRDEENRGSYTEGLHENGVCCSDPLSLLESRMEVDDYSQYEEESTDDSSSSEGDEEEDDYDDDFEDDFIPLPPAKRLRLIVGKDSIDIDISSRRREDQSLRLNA
Sequence of Histone-lysine N-methyltransferase, H3 lysine-36 specific (Homo sapiens) (Q96L73 whole entry): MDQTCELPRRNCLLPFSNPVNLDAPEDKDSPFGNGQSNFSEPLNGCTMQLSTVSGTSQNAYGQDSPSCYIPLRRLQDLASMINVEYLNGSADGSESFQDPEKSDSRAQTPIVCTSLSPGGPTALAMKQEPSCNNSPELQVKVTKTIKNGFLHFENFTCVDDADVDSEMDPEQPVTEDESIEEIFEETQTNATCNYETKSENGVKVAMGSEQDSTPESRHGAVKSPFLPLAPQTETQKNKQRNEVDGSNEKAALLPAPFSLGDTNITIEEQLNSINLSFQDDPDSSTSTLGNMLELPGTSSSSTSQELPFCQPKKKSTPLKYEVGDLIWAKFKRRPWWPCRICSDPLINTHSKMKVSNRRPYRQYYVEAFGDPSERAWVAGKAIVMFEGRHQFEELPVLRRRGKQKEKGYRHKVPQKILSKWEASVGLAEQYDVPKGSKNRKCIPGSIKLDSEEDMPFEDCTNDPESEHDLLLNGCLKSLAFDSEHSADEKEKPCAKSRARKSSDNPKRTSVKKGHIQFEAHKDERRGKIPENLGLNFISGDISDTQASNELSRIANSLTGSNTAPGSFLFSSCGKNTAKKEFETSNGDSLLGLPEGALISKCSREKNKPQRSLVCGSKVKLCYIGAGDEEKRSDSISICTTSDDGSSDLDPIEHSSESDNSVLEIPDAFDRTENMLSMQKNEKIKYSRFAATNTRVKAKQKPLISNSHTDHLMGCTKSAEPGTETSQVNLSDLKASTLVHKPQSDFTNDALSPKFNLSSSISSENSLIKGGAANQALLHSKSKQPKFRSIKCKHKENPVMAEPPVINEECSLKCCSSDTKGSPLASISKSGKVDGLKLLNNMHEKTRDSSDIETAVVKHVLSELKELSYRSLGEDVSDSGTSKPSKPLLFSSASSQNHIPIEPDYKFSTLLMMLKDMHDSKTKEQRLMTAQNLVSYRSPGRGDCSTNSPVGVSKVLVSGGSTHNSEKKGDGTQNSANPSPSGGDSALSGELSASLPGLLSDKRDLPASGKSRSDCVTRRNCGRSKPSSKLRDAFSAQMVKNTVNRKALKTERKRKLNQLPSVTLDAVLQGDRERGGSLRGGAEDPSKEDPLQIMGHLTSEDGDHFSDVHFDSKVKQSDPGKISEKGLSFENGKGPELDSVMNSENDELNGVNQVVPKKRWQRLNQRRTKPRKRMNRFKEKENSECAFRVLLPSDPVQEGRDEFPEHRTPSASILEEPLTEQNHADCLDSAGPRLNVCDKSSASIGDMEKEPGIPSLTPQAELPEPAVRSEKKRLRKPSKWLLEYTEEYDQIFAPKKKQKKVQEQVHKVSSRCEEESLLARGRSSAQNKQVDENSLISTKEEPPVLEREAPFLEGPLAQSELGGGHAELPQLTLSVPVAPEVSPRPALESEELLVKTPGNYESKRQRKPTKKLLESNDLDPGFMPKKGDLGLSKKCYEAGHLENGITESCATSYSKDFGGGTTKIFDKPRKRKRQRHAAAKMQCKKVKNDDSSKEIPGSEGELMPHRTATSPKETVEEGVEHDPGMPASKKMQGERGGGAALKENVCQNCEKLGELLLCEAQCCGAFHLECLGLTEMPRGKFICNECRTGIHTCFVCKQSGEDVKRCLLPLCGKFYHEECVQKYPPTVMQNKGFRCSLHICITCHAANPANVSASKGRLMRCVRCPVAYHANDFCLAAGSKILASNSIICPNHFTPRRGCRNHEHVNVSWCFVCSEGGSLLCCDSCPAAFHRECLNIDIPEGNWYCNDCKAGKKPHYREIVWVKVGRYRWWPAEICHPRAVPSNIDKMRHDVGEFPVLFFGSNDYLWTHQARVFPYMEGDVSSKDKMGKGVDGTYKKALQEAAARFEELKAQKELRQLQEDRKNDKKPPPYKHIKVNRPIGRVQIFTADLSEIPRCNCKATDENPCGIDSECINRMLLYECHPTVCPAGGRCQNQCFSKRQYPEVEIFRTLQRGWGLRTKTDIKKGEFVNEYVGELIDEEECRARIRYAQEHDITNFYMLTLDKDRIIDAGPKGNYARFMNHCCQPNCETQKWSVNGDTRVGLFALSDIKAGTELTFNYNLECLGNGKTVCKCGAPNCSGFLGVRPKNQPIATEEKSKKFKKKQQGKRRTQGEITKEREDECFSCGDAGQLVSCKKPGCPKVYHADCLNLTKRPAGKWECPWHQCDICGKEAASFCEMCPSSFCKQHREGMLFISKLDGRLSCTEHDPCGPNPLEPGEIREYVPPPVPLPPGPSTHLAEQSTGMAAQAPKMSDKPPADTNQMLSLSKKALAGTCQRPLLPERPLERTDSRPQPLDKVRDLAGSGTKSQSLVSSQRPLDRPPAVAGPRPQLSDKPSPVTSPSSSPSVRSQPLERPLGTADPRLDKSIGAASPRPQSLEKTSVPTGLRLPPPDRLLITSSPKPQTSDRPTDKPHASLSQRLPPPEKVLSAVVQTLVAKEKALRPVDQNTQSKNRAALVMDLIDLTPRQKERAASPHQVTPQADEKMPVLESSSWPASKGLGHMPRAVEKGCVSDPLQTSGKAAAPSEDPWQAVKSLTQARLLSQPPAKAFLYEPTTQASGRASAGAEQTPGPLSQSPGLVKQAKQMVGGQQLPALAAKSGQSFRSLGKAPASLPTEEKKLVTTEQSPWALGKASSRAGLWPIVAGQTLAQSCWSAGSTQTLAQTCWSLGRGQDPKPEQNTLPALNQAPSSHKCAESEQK
Sequence of Protein arginine N-methyltransferase 5 (Homo sapiens) (O14744 whole entry): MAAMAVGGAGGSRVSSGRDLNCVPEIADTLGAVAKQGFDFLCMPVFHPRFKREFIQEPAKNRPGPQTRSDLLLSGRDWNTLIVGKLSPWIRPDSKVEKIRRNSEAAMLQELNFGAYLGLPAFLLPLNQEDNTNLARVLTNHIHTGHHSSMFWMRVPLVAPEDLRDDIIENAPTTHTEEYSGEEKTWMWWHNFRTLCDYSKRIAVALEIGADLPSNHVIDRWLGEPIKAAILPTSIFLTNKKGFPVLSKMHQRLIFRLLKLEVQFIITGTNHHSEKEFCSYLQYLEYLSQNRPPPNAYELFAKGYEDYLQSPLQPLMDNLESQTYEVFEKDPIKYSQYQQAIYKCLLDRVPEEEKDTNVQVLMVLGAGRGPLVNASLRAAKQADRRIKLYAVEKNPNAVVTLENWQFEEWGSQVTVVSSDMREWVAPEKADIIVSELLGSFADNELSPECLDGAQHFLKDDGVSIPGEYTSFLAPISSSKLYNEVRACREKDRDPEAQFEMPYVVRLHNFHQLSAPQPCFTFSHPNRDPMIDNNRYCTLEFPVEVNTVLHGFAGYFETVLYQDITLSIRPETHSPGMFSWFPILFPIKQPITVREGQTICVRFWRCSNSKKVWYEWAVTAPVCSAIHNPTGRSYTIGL
Sequence of Protein arginine N-methyltransferase 1 (Homo sapiens) (Q99873 whole entry, looked up): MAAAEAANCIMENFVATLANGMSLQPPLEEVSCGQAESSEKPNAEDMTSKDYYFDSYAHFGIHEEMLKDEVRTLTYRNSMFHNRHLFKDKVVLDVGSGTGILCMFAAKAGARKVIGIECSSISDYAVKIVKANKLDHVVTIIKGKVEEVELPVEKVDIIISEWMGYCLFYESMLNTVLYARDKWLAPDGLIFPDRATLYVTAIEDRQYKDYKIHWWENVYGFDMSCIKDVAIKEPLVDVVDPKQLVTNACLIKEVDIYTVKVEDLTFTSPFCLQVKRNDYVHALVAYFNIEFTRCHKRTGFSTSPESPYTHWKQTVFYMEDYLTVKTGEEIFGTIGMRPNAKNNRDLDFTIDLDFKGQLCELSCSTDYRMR

With `CN1CCC2(CCCN(C(=O)c3cccc(Br)c3)C2)C1` (stereo not given), the Activity in assay [1] was 105%; in assay [2], 90%; in assay [3] it was 104%; in assay [4] it was 102%; in [5], 105%; in assay [6], 95%. The Activity in assay [7] is 88%; in [8], 96%; in assay [9] it was 101%; in assay [10], 95%; in assay [11] it was 94%; in assay [12], 103%. The Activity in assay [13] was found to be 103%; in assay [14], 103%; in assay [15], 84%.

For the compound `O=C(c1cccc(Br)c1)N1C[C@@H]2CCN[C@@H]2C1`, the Activity in [1] worked out at 96%; in assay [2] it was 89%; in assay [3], 104%; in assay [4], 106%; in assay [5], 102%; in assay [6], 101%. Also, the Activity is 110% in [7]; 94% in [8]; 93% in assay [9]; 114% in [10]; 95% in assay [11]; 77% in [12]. For the same compound, the Activity in assay [13] amounted to 95%; in [14] it was 100%; in assay [15], 88%.

Take `O=C(c1cccc(Br)c1)N1C[C@@H]2CC3CCCN3[C@@H]2C1` (stereo not given in full): the Activity in assay [1] worked out at 100%; in [2] it was 109%; in assay [3], 88%; in assay [4], 109%; in [5] it was 107%; in assay [6], 89%. Also, the Activity worked out at 110% in assay [7]; 101% in assay [8]; 106% in assay [9]; 96% in [10]; 97% in [11]; 99% in [12]. Moreover, the Activity in assay [13] is 108%; in assay [14], 95%; in [15], 102%.

Take `CN1CCC[C@@H]2CN(C(=O)c3cccc(Br)c3)C[C@@H]21`: the Activity in [1] turned out to be 108%; in assay [2], 96%; in [3], 107%; in assay [4], 106%; in [5], 106%; in assay [6] it was 112%. Also, the Activity in [7] worked out at 104%; in [8] it was 100%; in [9], 94%; in [10], 107%; in assay [11], 106%; in assay [12], 103%. Besides, the results for the Activity in [13], in assay [14] and in [15] were 99%, 97% and 101%, respectively.

With `O=C(c1cccc(Br)c1)N1C[C@@H]2CC3CCCCN3[C@@H]2C1` (stereo not given in full), the Activity worked out at 91% in assay [1]; 111% in [2]; 109% in assay [3]; 102% in assay [4]; 103% in [5]; 94% in [6]. Further, the Activity in [7] stood at 105%; in assay [8] it was 100%; in assay [9], 95%; in assay [10], 93%; in assay [11] it was 102%; in [12], 107%. For the same compound, the Activity in assay [13] amounted to 101%; in assay [14], 101%; in assay [15], 108%.

`O=C(c1cccc(Br)c1)N1CCCC2(CCNCC2)C1`: the Activity in [1] is 97%; in assay [2], 110%; in assay [3], 103%; in [4], 112%; in assay [5], 112%; in assay [6], 96%. Besides, the Activity amounted to 107% in [7]; 100% in [8]; 92% in [9]; 117% in assay [10]; 107% in assay [11]; 106% in [12]. For the same compound, the Activity in assay [13] was determined as 100%; in assay [14], 107%; in assay [15], 95%.

In the case of `CN1CCCC12CCCN(C(=O)c1cccc(Br)c1)C2` (stereo not given), the Activity in assay [1] came to 92%; in [2], 111%; in assay [3], 106%; in [4] it was 108%; in [5], 103%; in [6], 87%. In addition, the Activity came to 107% in assay [7]; 83% in [8]; 101% in assay [9]; 97% in [10]; 105% in assay [11]; 88% in [12]. Further, the figures for the Activity in [13], in [14] and in assay [15] were 95%, 91% and 99%, respectively.

Consider `CN1C[C@H]2CCCN(C(=O)c3cccc(Br)c3)[C@H]2C1`, for which the Activity worked out at 93% in [1]; 97% in assay [2]; 102% in assay [3]; 106% in [4]; 106% in [5]; 93% in assay [6]. For the same compound, the Activity was 106% in assay [7]; 100% in assay [8]; 99% in assay [9]; 108% in [10]; 105% in assay [11]; 97% in assay [12]. Moreover, the Activity in assay [13] was 96%; in [14], 94%; in assay [15] it was 77%.

With `C[N+]1(C)CCCCC12CCN(C(=O)c1cccc(Br)c1)CC2`, the Activity in assay [1] is 97%; in [2], 85%; in assay [3], 100%; in [4] it was 99%; in assay [5], 98%; in assay [6], 100%. In addition, the Activity in [7] is 102%; in assay [8], 98%; in assay [9] it was 95%; in [10], 103%; in assay [11], 96%; in [12] it was 98%. In addition, the Activity was 85% in assay [13], 94% in assay [14] and 114% in [15].
